Reference: US20200405696A1, “INHIBITORS OF INDOLEAMINE 2,3-DIOXYGENASE AND/OR TRYPTOPHAN 2,3-DIOXYGENASE” (IDORSIA PHARMACEUTICALS LTD, priority 2018, published 2020)

Key:
[1] = target: T1, Recombinant full-length human IDO1 (Homo sapiens, UniProt P14902); assay: IDO1 enzymatic assay (NFK quantified by LCMS); type: biochemical; conditions: 2 nM enzyme, 5 μM L-tryptophan, pH6.5, 30 minutes pre-incubation at RT; mean values when measured multiple times; read-out: hIDO activity (IC50 in nM)
T1 construct: Recombinant full-length human IDO1 with a N-terminal hexahistidine tag; hexahistidine (His6) (N); made in house; host or cells: E. coli
T1 sequence (P14902 whole entry): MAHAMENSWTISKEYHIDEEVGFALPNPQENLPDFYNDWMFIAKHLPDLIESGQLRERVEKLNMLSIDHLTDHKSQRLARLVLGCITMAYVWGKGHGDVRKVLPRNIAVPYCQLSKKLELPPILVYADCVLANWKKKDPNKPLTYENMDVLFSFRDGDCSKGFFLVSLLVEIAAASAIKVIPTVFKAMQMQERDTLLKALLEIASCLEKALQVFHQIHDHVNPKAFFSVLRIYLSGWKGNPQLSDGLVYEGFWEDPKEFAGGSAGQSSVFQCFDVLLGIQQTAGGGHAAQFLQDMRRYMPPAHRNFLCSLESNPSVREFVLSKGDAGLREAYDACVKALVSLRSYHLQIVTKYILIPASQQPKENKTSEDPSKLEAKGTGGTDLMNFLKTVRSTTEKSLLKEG
Description: 1) Testing Compounds for IDO Inhibitory Activity in an IDO1 Enzymatic Assay:
Recombinant full-length human IDO1 with a N-terminal hexahistidine tag expressed in E. coli and purified to homogeneity is incubated at a final concentration of 2 nM in assay buffer consisting of 37.5 mM phosphate buffer at pH6.5 supplemented with 10 mM ascorbic acid, 0.45 μM methylene blue, 50U/ml catalase, 0.01% BSA, and 0.01% Tween 20 (protocol modified from Seegers et al, JBS 2014). Example compounds are serially diluted in DMSO, further diluted in phosphate buffer, and added to the enzyme at final concentrations ranging from 10 μM to 0.5 nM. The final DMSO concentration is 0.6%. Following a pre-incubation of 30 minutes at RT, the reaction is started by the addition of L-tryptophan at a final concentration of 5 μM in assay buffer. After 30 minutes of incubation at RT, 3 μL of the 20 μl reaction mixture are transferred to a 384 deep well plate containing 25 μL of deionized water. 100 μl of 200 nM L-Tryptophan-(indole-d5) in cold 100% methanol are added followed by a 10 minutes centrifugation at 3220×g at 4° C. An additional 75 μL of deionized water are then added followed by a 10 minutes centrifugation at 3220×g at 4° C. The product of the reaction N′-Formylkynurenine (NFK) is quantified by LCMS and normalized to the L-Tryptophan-(indole-d5) signal. Samples with 0.6% DMSO (0% effect) and a TDO/IDO inhibitor (100% effect) are used as control samples to set the parameters for the non-linear regression necessary for the determination of the half-maximal inhibitory concentration (IC50) for each compound. For each compound concentration the percentage of activity compared to 0% and 100% effect is calculated as average±STDEV (each concentration measured in duplicate). IC50 values and curves are generated with XLfit software (IDBS) using Dose-Response One Site model 203 (four parameter logistic curve model). The calculated IC50 values may fluctuate depending on the daily assay performance. Fluctuations of this kind are known to those skilled in the art. When compounds are measured multiple times, mean values are given.

[2] = target: T2, Recombinant human TDO comprising amino acids 19-407 (Homo sapiens, UniProt P48775); assay: TDO2 enzymatic assay (NFK quantified by LCMS); type: biochemical; conditions: 15 nM enzyme, 200 μM L-tryptophan, pH7, 30 minutes pre-incubation at RT; mean values when measured multiple times; read-out: hTDO activity (IC50 in nM)
T2 construct: Recombinant human TDO comprising amino acids 19-407 with a N-terminal hexahistidine tag; hexahistidine (His6) (N); made in house; host or cells: E. coli
T2 sequence (P48775 19-406 limits assumed): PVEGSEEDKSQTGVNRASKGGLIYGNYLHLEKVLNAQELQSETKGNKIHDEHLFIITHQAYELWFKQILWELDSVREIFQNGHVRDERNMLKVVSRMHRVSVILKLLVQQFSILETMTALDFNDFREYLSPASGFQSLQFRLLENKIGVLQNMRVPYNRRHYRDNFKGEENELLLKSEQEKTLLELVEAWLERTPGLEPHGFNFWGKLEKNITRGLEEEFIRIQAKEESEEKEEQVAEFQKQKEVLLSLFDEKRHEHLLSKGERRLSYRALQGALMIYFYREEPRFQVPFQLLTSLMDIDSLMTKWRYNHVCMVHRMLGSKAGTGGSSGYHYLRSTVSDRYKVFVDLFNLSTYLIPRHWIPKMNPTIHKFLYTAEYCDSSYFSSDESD
Description: 2) Testing Compounds for TDO Inhibitory Activity in a TDO2 Enzymatic Assay:
Recombinant human TDO comprising amino acids 19-407 with a N-terminal hexahistidine tag expressed in E. coli and purified to homogeneity is incubated at a final concentration of 15 nM in assay buffer consisting of 75 mM phosphate buffer at pH7 supplemented with 100 μM ascorbic acid, 50U/ml Catalase, 0.01% BSA, and 0.01% Tween 20 (protocol modified from Seegers et al, JBS 2014). Example compounds are serially diluted in DMSO, further diluted in phosphate buffer, and added to the reaction mixture at final concentrations ranging from 10 μM to 0.5 nM. The final DMSO concentration is 0.6%. Following a pre-incubation of 30 minutes at RT, the reaction is started by the addition of L-tryptophan at a final concentration of 200 μM in assay buffer. After 30 minutes of incubation at RT, 3 μL of the reaction mixture are transferred to a 384 deep well plate containing 25 μL of deionized water. 100 μl of 200 nM L-Tryptophan-(indole-d5) in cold 100% methanol are added followed by a 10 minutes centrifugation at 3220×g at 4° C. An additional 75 μL of deionized water are then added followed by a 10 minutes centrifugation at 3220×g at 4° C. The product of the reaction N′-Formylkynurenine (NFK) is quantified by LCMS and normalized to the L-Tryptophan-(indole-d5) signal. Samples with 0.6% DMSO (0% effect) and a TDO/IDO inhibitor (100% effect) are used as control samples to set the parameters for the non-linear regression necessary for the determination of the half-maximal inhibitory concentration (IC50) for each compound. For each compound concentration the percentage of activity compared to 0% and 100% effect is calculated as average±STDEV (each concentration measured in duplicate). IC50 values and curves are generated with XLfit software (IDBS) using Dose-Response One Site model 203 (four parameter logistic curve model). The calculated IC50 values may fluctuate depending on the daily assay performance. Fluctuations of this kind are known to those skilled in the art. When compounds are measured multiple times, mean values are given.

| SMILES | IC50 [1] [nM] | IC50 [2] [nM] |
| --- | --- | --- |
| OC[C@H](O)COc1ccc(-n2cc(C(O)c3c(C4CC4)sc4cncn34)nn2)cc1 (mixture of isomers) [Example 202, (S)-3-(4-{4-[(R)-(2-Cyclopropyl-imidazo[5,1-b]thiazol-3-yl)-hydroxy-methyl]-[1,2,3]triazol-1-yl}-phenoxy)-propane-1,2-diol and (S)-3-(4-{4-[(S)-(2-Cyclopropyl-imidazo[5,1-b]thiazol-3-yl)-hydroxy-methyl]-[1,2,3]triazol-1-yl}-phenoxy)-propane-1,2-diol] | 15 | > 10200 |
| OC(c1cn(Cc2ccccc2)nn1)c1c(C2CC2)sc2cncn12 (racemic) [Example 1, rac-(1-Benzyl-1H-[1,2,3]triazol-4-yl)-(2-cyclopropyl-imidazo[5,1-b]thiazol-3-yl)-methanol] | 90.3 | > 10200 |
| OC(c1cn(-c2ccccc2)nn1)c1c(C2CC2)sc2cncn12 (racemic) [Example 2, rac-(2-Cyclopropyl-imidazo[5,1-b]thiazol-3-yl)-(1-phenyl-1H-[1,2,3]triazol-4-yl)-methanol] | 28.1 | > 10200 |
| Cc1ccccc1-n1cc(C(O)c2c(C3CC3)sc3cncn23)nn1 (racemic) [Example 3, rac-(2-Cyclopropyl-imidazo[5,1-b]thiazol-3-yl)-(1-o-tolyl-1H-[1,2,3]triazol-4-yl)-methanol] | 49.2 | > 10200 |
| Cc1ccc(-n2cc(C(O)c3c(C4CC4)sc4cncn34)nn2)cc1 (racemic) [Example 4, rac-(2-Cyclopropyl-imidazo[5,1-b]thiazol-3-yl)-(1-p-tolyl-1H-[1,2,3]triazol-4-yl)-methanol] | 34.5 | > 10200 |
| OC(c1cn(-c2cccc(C(F)(F)F)c2)nn1)c1c(C2CC2)sc2cncn12 (racemic) [Example 5, rac-(2-Cyclopropyl-imidazo[5,1-b]thiazol-3-yl)-[1-(3-trifluoromethyl-phenyl)-1H-[1,2,3]triazol-4-yl]-methanol] | 74.2 | > 10200 |
| OC(c1cn(-c2ccc(C(F)(F)F)cc2)nn1)c1c(C2CC2)sc2cncn12 (racemic) [Example 6, rac-(2-Cyclopropyl-imidazo[5,1-b]thiazol-3-yl)-[1-(4-trifluoromethyl-phenyl)-1H-[1,2,3]triazol-4-yl]-methanol] | 119 | > 10200 |
| COc1ccccc1-n1cc(C(O)c2c(C3CC3)sc3cncn23)nn1 (racemic) [Example 7, rac-(2-Cyclopropyl-imidazo[5,1-b]thiazol-3-yl)-[1-(2-methoxy-phenyl)-1H-[1,2,3]triazol-4-yl]-methanol] | 50.9 | > 10200 |
| COc1cccc(-n2cc(C(O)c3c(C4CC4)sc4cncn34)nn2)c1 (racemic) [Example 8, rac-(2-Cyclopropyl-imidazo[5,1-b]thiazol-3-yl)-[1-(3-methoxy-phenyl)-1H-[1,2,3]triazol-4-yl]-methanol] | 35.5 | > 10200 |
| COc1ccc(-n2cc(C(O)c3c(C4CC4)sc4cncn34)nn2)cc1 (racemic) [Example 9, rac-(2-Cyclopropyl-imidazo[5,1-b]thiazol-3-yl)-[1-(4-methoxy-phenyl)-1H-[1,2,3]triazol-4-yl]-methanol] | 8.62 | > 10200 |
| CC(=O)c1ccc(-n2cc(C(O)c3c(C4CC4)sc4cncn34)nn2)cc1 (racemic) [Example 10, rac-1-(4-{4-[(2-Cyclopropyl-imidazo[5,1-b]thiazol-3-yl)-hydroxy-methyl]-[1,2,3]triazol-1-yl}-phenyl)-ethanone] | 18.4 | > 10200 |
| N#Cc1ccc(-n2cc(C(O)c3c(C4CC4)sc4cncn34)nn2)cc1 (racemic) [Example 11, rac-4-{4-[(2-Cyclopropyl-imidazo[5,1-b]thiazol-3-yl)-hydroxy-methyl]-[1,2,3]triazol-1-yl}-benzonitrile] | 39.6 | > 10200 |
| CCc1sc2cncn2c1C(O)c1cn(-c2ccccc2)nn1 (racemic) [Example 12, rac-(2-Ethyl-imidazo[5,1-b]thiazol-3-yl)-(1-phenyl-1H-[1,2,3]triazol-4-yl)-methanol] | 20.8 | 6740 |
| OC(c1cn(-c2ccccc2)nn1)c1c(C2CCCC2)sc2cncn12 (racemic) [Example 13, rac-(2-Cyclopentyl-imidazo[5,1-b]thiazol-3-yl)-(1-phenyl-1H-[1,2,3]triazol-4-yl)-methanol] | 54.4 | 8410 |
| OC(c1cn(-c2ccccn2)nn1)c1c(C2CC2)sc2cncn12 (racemic) [Example 14, rac-(2-Cyclopropyl-imidazo[5,1-b]thiazol-3-yl)-(1-pyridin-2-yl-1H-[1,2,3]triazol-4-yl)-methanol] | 79.6 | > 10200 |
| OC(c1cn(-c2cccnc2)nn1)c1c(C2CC2)sc2cncn12 (racemic) [Example 15, rac-(2-Cyclopropyl-imidazo[5,1-b]thiazol-3-yl)-(1-pyridin-3-yl-1H-[1,2,3]triazol-4-yl)-methanol] | 95.8 | > 10200 |
| OC(c1cn(-c2ccc3[nH]ccc3c2)nn1)c1c(C2CC2)sc2cncn12 (racemic) [Example 16, rac-(2-Cyclopropyl-imidazo[5,1-b]thiazol-3-yl)-[1-(1H-indol-5-yl)-1H-[1,2,3]triazol-4-yl]-methanol] | 9.03 | 7880 |
| Cc1sc2cncn2c1C(O)c1cn(-c2ccccc2)nn1 (racemic) [Example 17, rac-(2-Methyl-imidazo[5,1-b]thiazol-3-yl)-(1-phenyl-1H-[1,2,3]triazol-4-yl)-methanol] | 154 | > 10200 |
| N#Cc1cccc(-n2cc(C(O)c3c(C4CC4)sc4cncn34)nn2)c1 (racemic) [Example 18, rac-3-{4-[(2-Cyclopropyl-imidazo[5,1-b]thiazol-3-yl)-hydroxy-methyl]-[1,2,3]triazol-1-yl}-benzonitrile] | 9.32 | > 10200 |
| OC(c1cn(-c2cncnc2)nn1)c1c(C2CC2)sc2cncn12 (racemic) [Example 19, rac-(2-Cyclopropyl-imidazo[5,1-b]thiazol-3-yl)-(1-pyrimidin-5-yl-1H-[1,2,3]triazol-4-yl)-methanol] | 182 | > 10200 |
| OC(c1cn(-c2cccc3[nH]ccc23)nn1)c1c(C2CC2)sc2cncn12 (racemic) [Example 20, rac-(2-Cyclopropyl-imidazo[5,1-b]thiazol-3-yl)-[1-(1H-indol-4-yl)-1H-[1,2,3]triazol-4-yl]-methanol] | 21.3 | > 10200 |
| OC(c1cn(-c2ccc3cc[nH]c3c2)nn1)c1c(C2CC2)sc2cncn12 (racemic) [Example 21, rac-(2-Cyclopropyl-imidazo[5,1-b]thiazol-3-yl)-[1-(1H-indol-6-yl)-1H-[1,2,3]triazol-4-yl]-methanol] | 18.1 | > 10200 |
